Consider eight compounds from ChEMBL document CHEMBL1201862, “PubChem BioAssay data set” (2004).

Experiment [1] in a line: inhibitors of Vif binding to APOBEC3G peptide, primary screen, biochemical, TR-FRET, GST-Vif 1-94, biotin-A3G peptide, dose response retest (AID 1117319).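 Note: TR-FRET signal of purified GST-Vif binding a biotinylated A3G peptide; inhibitors lower the FRET signal by blocking Vif and A3G binding.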 In kind it is functional. (Time-resolved FRET reads energy transfer from a long-lived donor to a nearby acceptor.)
The target in the next experiment is Large T antigen (Simian virus 40, UniProt P03070). In kind it is functional, Betapolyomavirus macacae.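 Note: Confirmatory-stage PubChem screen for compounds that inhibit SV40 T antigen.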
Chain of Large T antigen (P03070 whole entry): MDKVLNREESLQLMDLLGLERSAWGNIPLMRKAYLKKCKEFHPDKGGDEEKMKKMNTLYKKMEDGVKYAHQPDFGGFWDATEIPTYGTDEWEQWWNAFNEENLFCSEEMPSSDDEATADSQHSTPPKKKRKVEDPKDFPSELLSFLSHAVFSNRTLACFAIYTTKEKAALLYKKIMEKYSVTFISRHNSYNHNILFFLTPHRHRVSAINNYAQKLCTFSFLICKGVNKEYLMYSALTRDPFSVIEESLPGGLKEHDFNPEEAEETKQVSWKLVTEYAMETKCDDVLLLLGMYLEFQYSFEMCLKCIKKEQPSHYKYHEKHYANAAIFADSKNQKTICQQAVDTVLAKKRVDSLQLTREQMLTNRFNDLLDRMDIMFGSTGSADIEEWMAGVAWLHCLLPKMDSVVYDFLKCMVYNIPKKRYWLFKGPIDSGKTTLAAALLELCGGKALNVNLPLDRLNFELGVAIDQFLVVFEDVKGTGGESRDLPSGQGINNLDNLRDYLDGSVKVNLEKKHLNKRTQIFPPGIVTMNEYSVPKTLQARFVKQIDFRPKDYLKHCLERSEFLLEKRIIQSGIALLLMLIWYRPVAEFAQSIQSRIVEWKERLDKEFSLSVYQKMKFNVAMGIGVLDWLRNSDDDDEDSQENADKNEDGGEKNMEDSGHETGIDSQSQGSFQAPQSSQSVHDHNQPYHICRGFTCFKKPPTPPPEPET
Experiment [2] deals with T1, Rac GTPase-activating protein 1 (Homo sapiens, UniProt Q9H0H5).
T1 sequence (Q9H0H5 whole entry): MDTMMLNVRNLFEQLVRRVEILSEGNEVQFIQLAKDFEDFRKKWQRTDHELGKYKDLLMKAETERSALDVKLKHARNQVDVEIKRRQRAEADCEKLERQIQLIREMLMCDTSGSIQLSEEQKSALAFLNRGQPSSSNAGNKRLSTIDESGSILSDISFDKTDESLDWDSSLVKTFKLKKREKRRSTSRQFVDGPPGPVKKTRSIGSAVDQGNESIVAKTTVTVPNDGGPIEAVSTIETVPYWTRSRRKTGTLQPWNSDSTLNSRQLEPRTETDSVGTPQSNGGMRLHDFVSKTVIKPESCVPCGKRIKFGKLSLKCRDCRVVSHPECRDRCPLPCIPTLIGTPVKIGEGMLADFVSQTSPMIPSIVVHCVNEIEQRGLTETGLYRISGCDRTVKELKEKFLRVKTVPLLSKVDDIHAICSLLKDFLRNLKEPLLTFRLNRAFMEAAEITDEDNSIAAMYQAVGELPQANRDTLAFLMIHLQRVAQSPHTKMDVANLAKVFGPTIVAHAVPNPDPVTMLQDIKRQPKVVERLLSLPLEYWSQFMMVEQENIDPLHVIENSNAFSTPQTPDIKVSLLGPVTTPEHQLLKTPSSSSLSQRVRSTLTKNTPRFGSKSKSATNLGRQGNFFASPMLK
In words: MgcRacGAP GTPase-activating activity inhibitors, confirmation, biochemical, ADP Hunter fluorescence, primary and confirmatory (AID 624330). In kind it is functional.

Experiment [3] is described as follows: HeLa cell cytotoxicity, dose response, cytotoxicity control for MgcRacGAP inhibitor project (AID 624300). In kind it is functional.
Experiment [4] deals with T2, Estrogen receptor beta (Homo sapiens, UniProt Q92731). As to the kind of experiment: ERβ–SRC-3 coactivator interaction inhibitors, confirmation, orthogonal assay, biochemical, ELISA, streptavidin-HRP readout (AID 1060). (ELISA stands for enzyme-linked immunosorbent assay.)
T2 sequence (Q92731 whole entry): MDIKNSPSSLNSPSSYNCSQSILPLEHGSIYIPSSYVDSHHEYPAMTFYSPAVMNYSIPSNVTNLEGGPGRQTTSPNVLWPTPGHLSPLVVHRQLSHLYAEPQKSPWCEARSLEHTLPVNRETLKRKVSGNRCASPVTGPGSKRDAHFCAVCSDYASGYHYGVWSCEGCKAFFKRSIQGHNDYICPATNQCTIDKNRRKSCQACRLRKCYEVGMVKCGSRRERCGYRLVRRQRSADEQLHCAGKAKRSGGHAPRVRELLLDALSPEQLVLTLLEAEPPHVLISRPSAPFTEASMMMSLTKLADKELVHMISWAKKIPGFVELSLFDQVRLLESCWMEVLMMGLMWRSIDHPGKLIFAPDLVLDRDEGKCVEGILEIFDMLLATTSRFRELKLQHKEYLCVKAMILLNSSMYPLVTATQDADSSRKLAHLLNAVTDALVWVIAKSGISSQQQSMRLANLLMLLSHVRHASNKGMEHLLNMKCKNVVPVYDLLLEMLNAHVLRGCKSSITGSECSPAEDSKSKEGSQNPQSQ
Experiment [5] has as its target T2, Estrogen receptor beta.
The nature of experiment [6]: IGROV1 ovarian cancer cell cytotoxicity, dose response, PAX8 inhibitor project, plate reader, dry powder samples (AID 743043). In kind it is functional, cell-based. Particulars: IGROV-1.
The target of a further experiment is Paired box protein Pax-8 (Homo sapiens, UniProt Q06710). In words: inhibitors of PAX8-driven TPO luciferase reporter, dose response, RMG-I cells, cherry-pick (AID 687027).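 Note: luciferase reporter driven by Pax8 target thyroperoxidase promoter measured by SteadyGlo luminescence.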 In kind it is functional, cell-based. In general terms: In a reporter assay the amount or activity of a reporter protein is the signal.
Chain of Paired box protein Pax-8 (Q06710 whole entry): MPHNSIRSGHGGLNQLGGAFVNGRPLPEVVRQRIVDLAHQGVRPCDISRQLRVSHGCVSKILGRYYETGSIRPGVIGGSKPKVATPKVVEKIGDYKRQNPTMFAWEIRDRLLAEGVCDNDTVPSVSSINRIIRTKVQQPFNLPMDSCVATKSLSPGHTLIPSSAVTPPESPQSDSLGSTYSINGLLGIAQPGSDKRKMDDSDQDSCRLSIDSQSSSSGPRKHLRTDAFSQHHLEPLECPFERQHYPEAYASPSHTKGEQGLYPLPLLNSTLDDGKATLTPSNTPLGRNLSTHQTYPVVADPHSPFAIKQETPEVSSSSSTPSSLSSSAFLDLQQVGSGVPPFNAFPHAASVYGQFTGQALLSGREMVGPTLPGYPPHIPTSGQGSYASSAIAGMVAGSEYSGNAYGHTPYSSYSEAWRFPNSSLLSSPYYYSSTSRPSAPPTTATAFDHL
Experiment [7] can be described thus: NIH:OVCAR-3 ovarian cancer cell cytotoxicity, dose response, PAX8 inhibitor project, plate reader, dry powder samples (AID 743044). In kind it is functional, cell-based.
Experiment [8] is described as follows: cytotoxicity in OVCAR8 ovarian cancer cells, dose response, PAX8 project, cell-based, plate reader, dry powder samples (AID 743197). In kind it is functional. Conditions: OVCAR-8.
A further experiment concerns the target T3, Aminopeptidase N (Plasmodium falciparum FcB1/Columbia, UniProt O96935).
T3 sequence (O96935 whole entry): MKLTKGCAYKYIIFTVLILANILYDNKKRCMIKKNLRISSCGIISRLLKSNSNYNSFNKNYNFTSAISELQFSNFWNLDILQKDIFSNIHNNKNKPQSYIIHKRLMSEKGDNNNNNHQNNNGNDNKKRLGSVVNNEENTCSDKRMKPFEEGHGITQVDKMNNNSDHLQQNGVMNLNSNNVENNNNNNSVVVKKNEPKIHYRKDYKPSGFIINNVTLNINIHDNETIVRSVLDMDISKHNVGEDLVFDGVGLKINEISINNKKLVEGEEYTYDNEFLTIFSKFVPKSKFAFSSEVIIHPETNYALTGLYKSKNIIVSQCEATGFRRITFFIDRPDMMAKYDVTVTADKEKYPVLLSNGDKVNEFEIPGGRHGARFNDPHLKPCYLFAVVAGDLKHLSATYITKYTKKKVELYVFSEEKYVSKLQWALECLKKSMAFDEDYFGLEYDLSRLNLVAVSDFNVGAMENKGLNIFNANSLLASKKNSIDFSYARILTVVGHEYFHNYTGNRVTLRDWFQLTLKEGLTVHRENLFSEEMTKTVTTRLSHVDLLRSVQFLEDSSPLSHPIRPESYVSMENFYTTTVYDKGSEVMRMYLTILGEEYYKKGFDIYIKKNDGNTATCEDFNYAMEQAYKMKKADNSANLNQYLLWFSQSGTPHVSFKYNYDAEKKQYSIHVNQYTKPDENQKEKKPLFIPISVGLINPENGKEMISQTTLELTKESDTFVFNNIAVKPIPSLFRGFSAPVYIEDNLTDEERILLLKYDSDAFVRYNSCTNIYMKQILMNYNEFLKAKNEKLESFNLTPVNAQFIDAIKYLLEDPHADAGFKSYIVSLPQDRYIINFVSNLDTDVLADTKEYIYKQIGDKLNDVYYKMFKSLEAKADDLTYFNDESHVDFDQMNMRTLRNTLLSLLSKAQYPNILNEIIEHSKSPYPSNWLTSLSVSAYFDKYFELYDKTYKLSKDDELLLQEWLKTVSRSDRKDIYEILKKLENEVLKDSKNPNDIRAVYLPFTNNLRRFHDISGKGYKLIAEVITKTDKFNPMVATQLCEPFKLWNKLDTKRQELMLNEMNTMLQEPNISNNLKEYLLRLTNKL
In words: P. falciparum M1AAP inhibitors, biochemical, fluorogenic H-Leu-NHMec substrate, 1536-well (AID 1445). More on the design: species or system Plasmodium falciparum 3D7, 3D7.

The next experiment concerns the target T4, Caspase-6 (Homo sapiens, UniProt P55212).
T4 sequence (P55212 whole entry): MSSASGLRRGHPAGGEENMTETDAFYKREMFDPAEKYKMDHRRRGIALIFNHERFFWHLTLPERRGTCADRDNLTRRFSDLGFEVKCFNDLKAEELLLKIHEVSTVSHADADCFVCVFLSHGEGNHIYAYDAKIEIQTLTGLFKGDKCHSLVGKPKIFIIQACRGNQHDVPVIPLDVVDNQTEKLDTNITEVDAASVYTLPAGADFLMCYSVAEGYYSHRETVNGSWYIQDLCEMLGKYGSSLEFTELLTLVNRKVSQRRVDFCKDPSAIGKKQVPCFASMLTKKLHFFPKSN
As to the kind of experiment: human caspase-6 inhibitors, dose response, biochemical, VEID-R110 fluorescence, cherry-pick (AID 720632).

The nature of experiment [9]: P. falciparum Dd2 growth inhibitors, dose response, SYBR Green, cherry-picked samples (AID 1159567). In kind it is functional, cell-based.
The nature of experiment [10]: P. falciparum 3D7-ScDHODH growth inhibitors, dose response, SYBR Green, dry powder samples (AID 1159570).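 Note: parasite growth measured after 72 hours of compound exposure.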 In kind it is functional, cell-based.
Experiment [11] can be described thus: P. falciparum Dd2 growth inhibitors, dose response, SYBR Green, dry powder samples (AID 1159566).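 Note: potency for growth inhibition with lower SYBR green DNA signal.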 In kind it is functional, cell-based.
A short description of experiment [12]: HepG2 cell cytotoxicity, dose response, cytotoxicity control, plate reader, dry powder samples (AID 1159569).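 Note: inhibitor potency with signal falling toward the positive control level.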 In kind it is functional, cell-based.
Experiment [13] can be described thus: P. falciparum ATP4 D1247Y mutant growth inhibitors, dose response, NITD609-resistant line, SYBR Green, dry powder (AID 1159571).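 Note: parasites synchronized at ring stage by sorbitol before testing.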 In kind it is functional, cell-based.
Experiment [14] can be described thus: HepG2 cell cytotoxicity, dose response, cytotoxicity control, cherry-picked samples (AID 1159577). In kind it is functional, cell-based.

The source made the active and inactive calls.

In general, IC50 refers to the concentration that inhibits the measured activity by half. As to `O=C1C2CCCN2C(c2ccccc2)N1c1nccs1` (centres undefined), in experiment [1], the IC50 was > 100 µM (active).

The term CC50 denotes the concentration that lowers cell viability or growth by half. As for `Cc1ccc(C2=NOC(=O)/C2=C\c2ccc(C)o2)cc1`, the IC50 on Large T antigen is 78.1 µM (active); in experiment [2], 44.8 µM (active). Also, the CC50 in [3] is 100 µM (active).

Turning to `CC(=O)N1CCc2cc(S(=O)(=O)NCCC(=O)Nc3cccc(C)c3C)ccc21`, the IC50 in experiment [1] is > 100 µM (active).

As to `CCOc1[nH]c(/N=C/c2ccco2)c(C#N)c1C#N`, the IC50 against Estrogen receptor beta [4] was 18.2 µM (not active); on Estrogen receptor beta [5], 18.5 µM (active).

For orientation: AC50 means the midpoint of the concentration-response curve, whichever way the signal moves. `COc1ccc(S(=O)(=O)N(C)C[C@@H]2OCCCC[C@H](C)Oc3ccc(NS(=O)(=O)c4ccccc4)cc3C(=O)N([C@H](C)CO)C[C@H]2C)cc1`: the AC50 is 43.2 µM (active) in [6], 5.15 µM (active) on Paired box protein Pax-8, 28.2 µM (active) in [7] and > 70 µM (inactive) in [8].

Turning to `O=C(O)CC1SC(N/N=C/c2ccc(-c3ccc(Cl)c([N+](=O)[O-])c3)o2)=NC1=O` (centres undefined), the IC50 at Aminopeptidase N was 54.1 µM (active). The AC50 at Caspase-6 is 25.1 µM (active).

In the case of `COc1ccc2c3c(n(C)c2c1)[C@H](CO)N(CC1CCOCC1)CC31CCN(Cc2nccs2)CC1`, the AC50 is 1.46 µM (active) in experiment [9]; 0.845 µM (active) in [10]; 1.1 µM (active) in experiment [11]; > 100 µM (inactive) in [12]; 1.32 µM (active) in experiment [13].

Turning to `OC[C@H]1Nc2ccc(C#Cc3ccc(F)cc3)cc2[C@H]2[C@@H]1CCN2Cc1ccc2c(c1)OCO2`, the AC50 is 2.75 µM (active) in experiment [9]; 4 µM (active) in experiment [10]; 3.38 µM (active) in experiment [11]; 20.9 µM (active) in [12]; 26.2 µM (active) in experiment [14]; 3.18 µM (active) in experiment [13].
